PubChem BioAssay AID248 (DTP/NCI, 2004)
Values joined by “and” are separate entries in the source; they are usually repeats but may differ in a detail not shown here. Identical values can stand only once. Toxic doses and inconclusive results are not listed. Rule as the data show it: active = T/C of 150% or more; inactive = T/C below 125%.

System: L1210 leukemia ip in BDF1 mice, survival T/C
Assay: NCI In Vivo Anticancer Drug Screen. Data for tumor model L1210 Leukemia (intraperitoneal) in B6D2F1 (BDF1) mice
Settings: endpoint: mean survival time, higher = longer survival
Procedure, shortened: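 Antitumor effect is assessed in tumor-bearing animals. Survival in the compound arm is compared with a vehicle-dosed control arm and expressed as their quotient.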

[1] = dose: 100.0 mg/kg/injection, schedule: Q01DX001 (ip), vehicle: saline
[2] = dose: 200.0 mg/kg/injection, schedule: Q01DX001 (ip), vehicle: saline
[3] = dose: 400.0 mg/kg/injection, schedule: Q01DX001 (ip), vehicle: saline
[4] = dose: 100.0 mg/kg/injection, schedule: Q04DX002 (ip), vehicle: Klucel (hydroxypropylcellulose) (HPC)
[5] = dose: 200.0 mg/kg/injection, schedule: Q04DX002 (ip), vehicle: Klucel (hydroxypropylcellulose) (HPC)
[6] = dose: 100.0 mg/kg/injection, schedule: Q01DX001 (ip), vehicle: carboxymethylcellulose (CMC)
[7] = dose: 200.0 mg/kg/injection, schedule: Q01DX001 (ip), vehicle: carboxymethylcellulose (CMC)
[8] = dose: 400.0 mg/kg/injection, schedule: Q01DX001 (ip), vehicle: carboxymethylcellulose (CMC)
[9] = dose: 100.0 mg/kg/injection, schedule: Q01DX009 (ip), vehicle: saline with Tween-80
[10] = dose: 200.0 mg/kg/injection, schedule: Q01DX009 (ip), vehicle: saline with Tween-80
[11] = dose: 75.0 mg/kg/injection, schedule: Q01DX001 (ip), vehicle: carboxymethylcellulose (CMC)
[12] = dose: 150.0 mg/kg/injection, schedule: Q01DX001 (ip), vehicle: carboxymethylcellulose (CMC)
[13] = dose: 400.0 mg/kg/injection, schedule: Q01DX009 (ip), vehicle: saline with Tween-80
[14] = dose: 100.0 mg/kg/injection, schedule: Q04DX003 (ip), vehicle: Klucel (hydroxypropylcellulose) (HPC)
[15] = dose: 200.0 mg/kg/injection, schedule: Q04DX003 (ip), vehicle: Klucel (hydroxypropylcellulose) (HPC)
[16] = dose: 400.0 mg/kg/injection, schedule: Q04DX003 (ip), vehicle: Klucel (hydroxypropylcellulose) (HPC)
[17] = dose: 100.0 mg/kg/injection, schedule: Q01DX009 (ip), vehicle: Klucel (hydroxypropylcellulose) (HPC)
[18] = dose: 200.0 mg/kg/injection, schedule: Q01DX009 (ip), vehicle: Klucel (hydroxypropylcellulose) (HPC)
[19] = dose: 400.0 mg/kg/injection, schedule: Q01DX009 (ip), vehicle: Klucel (hydroxypropylcellulose) (HPC)

Measured: T/C

CN(C)C1(C)CCC2C3CCC4=CC(=O)CCC4(C)C3CCC21C (stereo unspecified)
inactive: dose: 50.0 mg/kg/injection, schedule: Q01DX001 (sc), vehicle: steriod suspending solution 98 % of control | dose: 100.0 mg/kg/injection, schedule: Q01DX001 (sc), vehicle: steriod suspending solution 98 % of control | dose: 200.0 mg/kg/injection, schedule: Q01DX001 (sc), vehicle: steriod suspending solution 95 % of control | dose: 400.0 mg/kg/injection, schedule: Q01DX001 (sc), vehicle: steriod suspending solution 98 % of control

CCOC(=O)c1cc([N+](=O)[O-])ccc1N
inactive: [1] 100 % of control | [2] 94 % of control | [3] 94 % of control

Cn1[nH]c(=O)c2ncccc2c1=O
inactive: [4] 97 % of control | dose: 100.0 mg/kg/injection, schedule: Q04DX002 (ip), vehicle: saline 94 % of control | [5] 97 % of control | dose: 200.0 mg/kg/injection, schedule: Q04DX002 (ip), vehicle: saline 94 % of control | dose: 400.0 mg/kg/injection, schedule: Q04DX002 (ip), vehicle: saline 97 % of control

Nc1ccc(S(=O)(=O)c2cc(O)ccc2O)cc1
inactive: [6] 101 % of control | [7] 100 % of control | [8] 97 % of control

COc1ccc(Cl)cc1NC(=O)N/N=C(\C)CC(C)C
inactive: [9] 91 % of control | dose: 100.0 mg/kg/injection, schedule: Q04DX003 (ip), vehicle: saline with Tween-80 97 % of control | [10] 91 % of control | dose: 200.0 mg/kg/injection, schedule: Q04DX003 (ip), vehicle: saline with Tween-80 101 % of control | dose: 400.0 mg/kg/injection, schedule: Q04DX003 (ip), vehicle: saline with Tween-80 101 % of control

CC1(C)OCC(C2OC3OC(c4ccccc4)=NC3C2O)O1 (stereo unspecified)
inactive: dose: 100.0 mg/kg/injection, schedule: Q01DX001 (ip), vehicle: Klucel (hydroxypropylcellulose) (HPC) 96 % of control | dose: 200.0 mg/kg/injection, schedule: Q01DX001 (ip), vehicle: Klucel (hydroxypropylcellulose) (HPC) 104 % of control | dose: 400.0 mg/kg/injection, schedule: Q01DX001 (ip), vehicle: Klucel (hydroxypropylcellulose) (HPC) 101 % of control

CCCCC(CCCC)NCCO
inactive: [11] 98 % of control | [12] 96 % of control

COC1OC2COC(c3ccccc3)OC2C(N=Cc2ccccc2)C1O (stereo unspecified)
inactive: [9] 97 % of control | [10] 101 % of control | [13] 98 % of control

CC(C)(C)N1C(=O)N(C(C)(C)C)C1=O
inactive: [9] 91 % of control | [14] 113 % of control | [10] 94 % of control | [15] 102 % of control | [13] 93 % of control | [16] 109 % of control

O=C(O)c1cc(N=Nc2cccc([N+](=O)[O-])c2)ccc1O
inactive: dose: 62.5 mg/kg/injection, schedule: Q01DX001 (ip), vehicle: Klucel (hydroxypropylcellulose) (HPC) 97 % of control | dose: 125.0 mg/kg/injection, schedule: Q01DX001 (ip), vehicle: Klucel (hydroxypropylcellulose) (HPC) 92 % of control

CCOC(=O)CCc1ccc(N=NN(C)C(C)CC)cc1 (stereo unspecified)
inactive: [6] 111 % of control | [7] 105 % of control | [8] 111 % of control

COc1ccc(C)cc1NC(=O)Oc1ccc2c(C)cc(=O)oc2c1
inactive: [9] 96 % of control | [10] 96 % of control

C=C1C(=O)OC2C=C(C(O)CC(C)O)C(C)CCC12 (stereo unspecified)
inactive: dose: 50.0 mg/kg/injection, schedule: Q01DX001 (ip), vehicle: water 89 % of control | dose: 100.0 mg/kg/injection, schedule: Q01DX001 (ip), vehicle: water 95 % of control | dose: 200.0 mg/kg/injection, schedule: Q01DX001 (ip), vehicle: water 94 % of control

CCCCC1=Cc2cc3c(cc2C1N(C)C)OCO3 (stereo unspecified)
inactive: dose: 6.25 mg/kg/injection, schedule: Q04DX002 (ip), vehicle: Klucel (hydroxypropylcellulose) (HPC) 102 % of control | dose: 12.5 mg/kg/injection, schedule: Q04DX002 (ip), vehicle: Klucel (hydroxypropylcellulose) (HPC) 99 % of control | dose: 25.0 mg/kg/injection, schedule: Q04DX002 (ip), vehicle: Klucel (hydroxypropylcellulose) (HPC) 95 % of control and 105 % of control | [4] 92 % of control

CCCCOC(=O)c1ccc(NC(=S)NCCc2ccccc2)cc1
inactive: [17] 103 % of control | [18] 98 % of control | [19] 95 % of control

Cc1ccc(NC(=O)Oc2ccc(C(C)(C)C)cc2)cc1NC(=O)Oc1ccc(C(C)(C)C)cc1
inactive: [17] 97 % of control | [18] 105 % of control | [19] 100 % of control

COc1ccc(OC(=O)Nc2cccc(C(C)=O)c2)cc1
inactive: dose: 100.0 mg/kg/injection, schedule: Q01DX009 (ip), vehicle: other 106 % of control | dose: 200.0 mg/kg/injection, schedule: Q01DX009 (ip), vehicle: other 89 % of control | dose: 400.0 mg/kg/injection, schedule: Q01DX009 (ip), vehicle: other 101 % of control

O=C(O)c1cc([N+](=O)[O-])cs1
inactive: [1] 98 % of control | [2] 104 % of control

CC(=O)Nc1c(C)cc(C)c(F)c1Br
inactive: dose: 37.5 mg/kg/injection, schedule: Q01DX001 (ip), vehicle: Klucel (hydroxypropylcellulose) (HPC) 97 % of control | dose: 75.0 mg/kg/injection, schedule: Q01DX001 (ip), vehicle: Klucel (hydroxypropylcellulose) (HPC) 95 % of control | dose: 150.0 mg/kg/injection, schedule: Q01DX001 (ip), vehicle: Klucel (hydroxypropylcellulose) (HPC) 95 % of control

CCCCCCCCc1ccc(NNC(N)=S)cc1
inactive: dose: 3.12 mg/kg/injection, schedule: Q01DX009 (ip), vehicle: saline 93 % of control | dose: 6.25 mg/kg/injection, schedule: Q01DX009 (ip), vehicle: saline 101 % of control and 92 % of control | dose: 12.5 mg/kg/injection, schedule: Q01DX009 (ip), vehicle: saline 103 % of control | dose: 25.0 mg/kg/injection, schedule: Q01DX009 (ip), vehicle: saline 100 % of control

O=C1CC2CCCC(C1)S2
inactive: [11] 107 % of control | [4] 86 % of control | [12] 109 % of control | [5] 100 % of control | dose: 300.0 mg/kg/injection, schedule: Q01DX001 (ip), vehicle: carboxymethylcellulose (CMC) 102 % of control | dose: 400.0 mg/kg/injection, schedule: Q04DX002 (ip), vehicle: Klucel (hydroxypropylcellulose) (HPC) 86 % of control

COC(=O)C1CC2(C(=O)OC)CC(C(=O)OC)(CC(C(=O)OC)C2=O)C1=O (stereo unspecified)
inactive: dose: 50.0 mg/kg/injection, schedule: Q04DX002 (ip), vehicle: Klucel (hydroxypropylcellulose) (HPC) 93 % of control | [4] 102 % of control | [14] 95 % of control | [5] 108 % of control | [15] 89 % of control | [16] 92 % of control

CCS(=O)(=O)C1CCC1OC(C)(C)C (stereo unspecified)
inactive: [1] 108 % of control | [2] 108 % of control | [3] 102 % of control
